Measurements: patent publication US10441588B2, “Methods and compositions for treating bacterial infection” (Curators of the University of Missouri, priority 2012, dated 2019)

Assays:
[1] = test system: P. aeruginosa; experiment: P. aeruginosa wound infection in DIO mice; format: in vivo; conditions: female DIO mice, 10^8 CFU; vancomycin treatment alone
[2] = test system: S. aureus biofilm; experiment: S. aureus biofilm inhibition, optical density, test/control; format: cell-based, Staphylococcus aureus; conditions: for activity at 100 µM / activity at 10 µM: Staphylococcus aureus
[3] = test system: S. epidermis biofilm; experiment: S. epidermis biofilm inhibition, optical density, test/control; conditions: for S. epidermis Biofilm inhibition 10 μM vs. (−) Control / activity at 100 µM: growth of biofilm test/control by optical density; for activity at 100 µM: Staphylococcus epidermidis, read-out: S. epidermis Biofilm inhibition 100 μM vs. (−) Control, 100 μM
[4] = test system: S. aureus; experiment: S. aureus growth inhibition, optical density, test/control; format: cell-based, Staphylococcus aureus; conditions: growth of bacteria test/control by optical density; for activity at 100 µM: Staphylococcus aureus
[5] = test system: S. epidermis; experiment: S. epidermis growth inhibition, optical density, test/control; format: cell-based, Staphylococcus epidermidis; conditions: for activity at 100 µM: Staphylococcus epidermidis, growth of bacteria test/control by optical density
[6] = test system: E. coli flagellin (fliC); experiment: microbe, parasite or virus in culture; format: cell-based; conditions: Escherichia coli, 6 h; for activity at 5 µM: read-out: E. coli flagellin production, Relative Level vs. Control, 5 μM; for activity at 25 µM: read-out: E. coli flagellin production, Relative Level vs. Control, 25 μM
[7] = test system: S. aureus virulence factor genes; experiment: S. aureus virulence factor gene expression, real time RT-PCR; format: cell-based; conditions: RN6390, 50 μM; ML, LL and S growth phase
[8] = test system: S. aureus RN6390 strain biofilm; experiment: microbe, parasite or virus in culture; format: cell-based
[9] = test system: S. aurues strain RN6390; experiment: S. aureus RN6390 bacterial growth; format: cell-based; conditions: at 20 μM
Method: (§1) These compounds were then tested on staphylococcus biofilm formation. […] The two compounds (CCG-203592 and CCG-205363) were tested on S. aurues strain RN6390, which is reported to be more prone to biofilm formation than Newman strain.

[10] = test system: S. aureus Newman biofilm; experiment: S. aureus Newman biofilm formation in microtiter plates; format: cell-based
Method: as §1

[11] = test system: group A streptococcus (GAS); experiment: Group A streptococcus infection in mice; format: in vivo; conditions: GAS 105-6 CFU per mouse
Method: FIGS. 1A & 1B show the identification of a chemical series of compounds inhibiting group A streptococcus virulence. FIG. 1A) Microarray analysis of gene expression changes in MGAS2221 treated with CCG-102487 compared to DMSO. FIG. 1B) Effect of CCG-2979 on mice survival after infection with GAS (105-6 CFU per mouse).
A number of small molecules that can inhibit SK expression without impeding bacterial growth were evaluated. Furthermore, these compounds can inhibit gene expression of a broad spectrum of streptococcal virulence factors (FIG. 1A).

[12] = 100 μM, growth of biofilm test/control by optical density
[13] = growth of biofilm test/control by optical density

CN[C@H](CC(C)C)C(=O)N[C@H]1C(=O)N[C@@H](CC(N)=O)C(=O)N[C@H]2C(=O)N[C@H]3C(=O)N[C@H](C(=O)N[C@H](C(=O)O)c4cc(O)cc(O)c4-c4cc3ccc4O)[C@H](O)c3ccc(c(Cl)c3)Oc3cc2cc(c3O[C@@H]2O[C@H](CO)[C@@H](O)[C@H](O)[C@H]2O[C@H]2C[C@](C)(N)[C@H](O)[C@H](C)O2)Oc2ccc(cc2Cl)[C@H]1O [vancomycin, reference compound]
survival [1]: 40%

COCCSc1nc2c(c(=O)n1CCCO)C(C)(C)Cc1ccccc1-2 [CCG-205390, 3-(3-Hydroxypropyl)-2-((2-methoxyethyl)thio)-5,5-dimethyl-5,6-dihydrobenzo[h]quinazolin-4(3H)-one]
activity at 100 µM [2, 12]: 52.5% | S. epidermis Biofilm inhibition 10 μM vs. (−) Control [3]: 0.921 | activity at 100 µM [4]: 89.1%

C=CCn1c(SCCOC)nc2c(c1=O)C(C)(C)Cc1cc(C(=O)NCCO)ccc1-2 [CCG-206239, 3-allyl-N-(2-hydroxyethyl)-2-((2-methoxyethyl)thio)-5,5-dimethyl-4-oxo-1,2,3,4,5,6-hexahydrobenzo[h]quinazoline-8-carboxamide]
activity at 100 µM [2, 12]: 32.7% | activity at 100 µM [5]: 111%

COCCSc1nc(OCCCO)c2c(n1)-c1ccccc1CC2(C)C [CCG-205384, 3-((2-((2-Methoxyethyl)thio)-5,5-dimethyl-5,6-dihydrobenzo[h]quinazolin-4-yl)oxy)propan-1-ol]
activity at 100 µM [2, 12]: 16% | S. epidermis Biofilm inhibition 10 μM vs. (−) Control [3]: 1.095 | activity at 100 µM [5]: 100% | activity at 100 µM [4]: 93.5%

C=CCn1c(NCC)nc2c(c1=O)C1(CCCCC1)Cc1ccccc1-2 [CCG-203043]
activity at 100 µM [2, 12]: 43.5% | S. epidermis Biofilm inhibition 10 μM vs. (−) Control [3]: 0.169 | S. epidermidis biofilm formation ([3]; RP62A strain, microtiter plate): strong inhibition | activity at 100 µM [3]: 45% | S. epidermidis bacterial growth ([5]; RP62A strain): without inhibition of bacterial growth | activity at 100 µM [4]: 70%

CCSc1nc2c(c(=O)n1C)C(C)(C)Cc1ccc(OC)cc1-2 [CCG-206353]
activity at 10 µM [2, 13]: 49.4% | activity at 100 µM [2, 12]: 32.3% | S. epidermis Biofilm inhibition 10 μM vs. (−) Control [3]: 1.053 | activity at 100 µM [3]: 34.7% | activity at 100 µM [4]: 92.1%

COc1ccc2c(c1)CC(C)(C)c1c-2nc(N(C)CCO)n(C)c1=O [IVG-00612-00A01]
activity at 5 µM [6]: 18.1% | activity at 25 µM [6]: 12.9%

C=CCn1c(SCCOC)nc2c(c1=O)C1(CCN(C(=O)CCCC)CC1)Cc1ccccc1-2 [CCG-206227, 3-Allyl-2-((2-methoxyethyl)thio)-1′-pentanoyl-3H-spiro[benzo[h]quinazoline-5,4′-piperidin]-4(6H)-one]
biofilm formation by S. aureus [2]: inhibit biofilm formation | activity at 10 µM [2, 13]: 52.8% | activity at 100 µM [2, 12]: 27% | biofilm formation by S. epidermis [3]: inhibit biofilm formation | S. epidermis Biofilm inhibition 10 μM vs. (−) Control [3]: 0.943 | activity at 100 µM [5]: 141%

COc1ccc2c(c1)CC(C)(C)c1c-2nc(S)n(C)c1=O [IVG-00608-00A01]
activity at 5 µM [6]: 82.8% | activity at 25 µM [6]: 48.9%

COc1ccc2c(c1)CC(C)(C)c1c-2nc(SCC(F)(F)F)n(C)c1=O [IV501]
activity at 5 µM [6]: 36.2% | activity at 25 µM [6]: 47.5%

COc1ccc2c(c1)CC(C)(C)c1c(OC)nc(SCC(F)(F)F)nc1-2 [IVG-00607-00A01]
activity at 5 µM [6]: 63.4% | activity at 25 µM [6]: 27.5%

C=CCSc1nc2c(c(=O)n1CC=C)C(C)(C)Cc1cc(OC)ccc1-2 [CCG-205363]
activity at 10 µM [2, 13]: 63.1% | activity at 100 µM [2, 12]: 44% | S. aureus virulence factor gene expression [7]: inhibited gene expression | IC50, inhibition of S. aureus biofilm formation [8]: low μM range | IC50 ([8]; Staphylococcus aureus, read-out: IC50, inhibition of RN6390 biofilm formation): 6.96 ± 0.76 µM | activity at 100 µM [4]: 95% | bacteria growth [9]: without inhibiting bacteria growth | S. aureus Newman biofilm formation [10]: consistent inhibition

COc1ccc2c(c1)CC(C)(C)c1c-2nc(SCC(F)(F)F)[nH]c1=O [IVG-00601-00A01]
activity at 5 µM [6]: 85.3% | activity at 25 µM [6]: 3.96%

COc1ccc2c(c1)CC(C)(C)c1c-2nc(NCC(F)(F)F)n(C)c1=O [IVG-00611-00A01]
activity at 5 µM [6]: 19.6% | activity at 25 µM [6]: 13.6%

C=CCn1c(NCC)nc2c(c1=O)C(C)(C)Cc1ccccc1-2 [CCG-203804]
activity at 100 µM [2, 12]: 10.3% | S. epidermis Biofilm inhibition 10 μM vs. (−) Control [3]: 0.858 | activity at 100 µM [5]: 103% | activity at 100 µM [4]: 66.2%

C=CCn1c(SCCOC)nc2c(c1=O)C1(CCNCC1)Cc1ccccc1-2 [CCG-205447, 3-Allyl-2-((2-methoxyethyl)thio)-3H-spiro[benzo[h]quinazoline-5,4′-piperidin]-4(6H)-one]
activity at 10 µM [2, 13]: 110% | S. epidermis Biofilm inhibition 10 μM vs. (−) Control [3]: 0.936 | activity at 100 µM [5]: 104% | activity at 100 µM [4]: 90%

COc1ccc2c(c1)CC(C)(C)c1c-2nc(NCCO)n(C)c1=O [IVG-00610-00A01]
activity at 5 µM [6]: 31.6% | activity at 25 µM [6]: 8.83%

C=CCn1c(SCCCC)nc2c(c1=O)C1(CCCCC1)Cc1ccccc1-2 [CCG-2979]
protection of mice against group A streptococcal infection (survival) [11]: capable of protecting mice

C=CCn1c(SCC)nc2c(c1=O)C(C)(C)Cc1cc(OCCN(CC)CC)ccc1-2 [CCG-205396, 3-Allyl-8-(2-(diethylamino)ethoxy)-2-(ethylthio)-5,5-dimethyl-5,6-dihydrobenzo[h]-quinazolin-4(3H)-one]
activity at 10 µM [2, 13]: 68.4% | activity at 100 µM [2, 12]: 6.2% | activity at 100 µM [3]: 3.7% | activity at 100 µM [5]: 13%

CCNc1nc2c(c(=O)n1C)C(C)(C)Cc1cc(OC)ccc1-2 [IVG-00613-00A01]
activity at 5 µM [6]: 34.2% | activity at 25 µM [6]: 13.9%

COc1ccc2c(c1)CC(C)(C)c1c-2nc(OCC(F)(F)F)n(C)c1=O [IVG-00614-00A01]
activity at 5 µM [6]: 24.4% | activity at 25 µM [6]: 26.2%

C=CCn1c(SCC)nc2c(c1=O)C(C)(C)Cc1cc(OCCN3CCOCC3)ccc1-2 [CCG-205427]
activity at 10 µM [2, 13]: 73.4% | activity at 100 µM [3]: 76.6% | activity at 100 µM [5]: 98% | activity at 100 µM [4]: 92.8%

COCCOCCOc1nc(SCCOC)nc2c1C(C)(C)Cc1ccccc1-2 [CCG-204033, 4-(2-(2-Methoxyethoxy)ethoxy)-2-((2-methoxyethyl)thio)-5,5-dimethyl-5,6-dihydrobenzo[h]-quinazoline]
activity at 100 µM [2, 12]: 59.9% | activity at 100 µM [3]: 75.6% | activity at 100 µM [5]: 103% | activity at 100 µM [4]: 83.8%

COCCSc1nc(OCC2OCCO2)c2c(n1)-c1ccccc1CC2(C)C [CCG-204030, 4-((1,3-dioxolan-2-yl)methoxy)-2-((2-methoxyethyl)thio)-5,5-dimethyl-5,6-dihydrobenzo[h]-quinazoline]
S. aureus Biofilm Inhibition 100 μM vs. (−) Control [2, 12]: 0.589 | activity at 100 µM [3]: 73.9% | activity at 100 µM [5]: 111% | Growth Inhibition 100 μM vs. (−) Control [4]: 0.919

C=CCn1c(SCc2ccc(OC)cc2)nc2c(c1=O)C1(CCCCC1)Cc1ccccc1-2 [CCG-102483]
activity at 100 µM [3]: 78.6% | activity at 100 µM [5]: 129%
